Measurements: the supplement of paper PMC11061612

What was measured:
AZD1775 = compound: C=CCn1c(=O)c2cnc(Nc3ccc(N4CCN(C)CC4)cc3)nc2n1-c1cccc(C(C)(C)O)n1 [AZD1775]; conditions: max 3 µM
Outline: (§1)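 Cancer cell lines were seeded in 1536-well plates in 7.5 μl DMEM/F12 or RPMI with 10% FBS, held 24 hours at 37°C and 5% CO2, then dosed for 72 hours (final DMSO typically 0.2%). Viability was read by CellTiter-Glo 2.0 luminescence and scaled between blank-well and DMSO-well means. The single-agent IC50 comes from dose responses fitted to a two-parameter logistic curve with a non-linear mixed effects model.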

Trametinib = compound: CC(=O)Nc1cccc(-n2c(=O)n(C3CC3)c(=O)c3c(Nc4ccc(I)cc4F)n(C)c(=O)c(C)c32)c1 [Trametinib]; conditions: max 1 µM
Outline: as §1

AZD7648 = compound: Cc1cc2ncnn2cc1Nc1ncc2c(n1)n(C1CCOCC1)c(=O)n2C [AZD7648]; conditions: max 10 µM
Outline: as §1

5-Fluorouracil = compound: O=c1[nH]cc(F)c(=O)[nH]1 [5-Fluorouracil]; conditions: max 20 µM
Outline: as §1

Gemcitabine = compound: Nc1ccn([C@@H]2O[C@H](CO)[C@@H](O)C2(F)F)c(=O)n1 [Gemcitabine]; conditions: max 0.3 µM
Outline: as §1

Etoposide = compound: COc1cc([C@@H]2c3cc4c(cc3[C@@H](O[C@@H]3O[C@@H]5CO[C@@H](C)O[C@H]5[C@H](O)[C@H]3O)[C@H]3COC(=O)[C@H]23)OCO4)cc(OC)c1O [Etoposide]; conditions: max 10 µM
Outline: as §1

AZD5363 = compound: C1CN(CCC1(C(=O)N[C@@H](CCO)C2=CC=C(C=C2)Cl)N)C3=NC=NC4=C3C=CN4 [AZD5363]; conditions: max 10 µM
Outline: as §1

Taselisib = compound: Cc1nc(-c2cn3c(n2)-c2ccc(-c4cnn(C(C)(C)C(N)=O)c4)cc2OCC3)n(C(C)C)n1 [Taselisib]; conditions: max 10 µM
Outline: as §1

Palbociclib = compound: CC(=O)c1c(C)c2cnc(Nc3ccc(N4CCNCC4)cn3)nc2n(C2CCCC2)c1=O [Palbociclib]; conditions: max 10 µM
Outline: as §1

SN-38 = compound: CCc1c2c(nc3ccc(O)cc13)-c1cc3c(c(=O)n1C2)COC(=O)[C@]3(O)CC [SN-38]; conditions: max 0.3 µM
Outline: as §1

SG3199 = compound: CC1=CN2[C@@H](C1)C=NC3=CC(=C(C=C3C2=O)OC)OCCCCCOC4=C(C=C5C(=C4)N=C[C@@H]6CC(=CN6C5=O)C)OC [SG3199]; conditions: max 0.001 µM
Outline: as §1

Gefitinib = compound: COc1cc2ncnc(Nc3ccc(F)c(Cl)c3)c2cc1OCCCN1CCOCC1 [Gefitinib]; conditions: max 10 µM
Outline: as §1

AZD8186 = compound: C[C@@H](Nc1cc(F)cc(F)c1)c1cc(C(=O)N(C)C)cc2c(=O)cc(N3CCOCC3)oc12 [AZD8186]; conditions: max 10 µM
Outline: as §1

Dasatinib = compound: CC1=C(C(=CC=C1)Cl)NC(=O)C2=CN=C(S2)NC3=CC(=NC(=N3)C)N4CCN(CC4)CCO [Dasatinib]; conditions: max 2 µM
Outline: as §1

Doxorubicin = compound: COc1cccc2c1C(=O)c1c(O)c3c(c(O)c1C2=O)C[C@@](O)(C(=O)CO)C[C@@H]3O[C@H]1C[C@H](N)[C@H](O)[C@H](C)O1 [Doxorubicin]; conditions: max 1 µM
Outline: as §1

SRA737 = compound: N#Cc1cnc(Nc2cc(NC[C@H]3CNCCO3)c(C(F)(F)F)cn2)cn1 [SRA737]; conditions: max 10 µM
Outline: as §1

AZD5991 = compound: Cc1c2c(nn1C)CSCc1cc(n(C)n1)CSc1cc(c3ccccc3c1)OCCCc1c(C(=O)O)n(C)c3c-2c(Cl)ccc13 [AZD5991]; conditions: max 1 µM
Outline: as §1

Crizotinib = compound: C[C@@H](Oc1cc(-c2cnn(C3CCNCC3)c2)cnc1N)c1c(Cl)ccc(F)c1Cl [Crizotinib]; conditions: max 10 µM
Outline: as §1

MK-2206 = compound: NC1(c2ccc(-c3nc4ccn5c(=O)[nH]nc5c4cc3-c3ccccc3)cc2)CCC1 [MK-2206]; conditions: max 10 µM
Outline: as §1

AZD2811 = compound: CCN(CCO)CCCOc1ccc2c(Nc3cc(CC(=O)Nc4cccc(F)c4)[nH]n3)ncnc2c1 [AZD2811]; conditions: max 1 µM
Outline: as §1

AZD5153 = compound: COc1nnc2ccc(N3CCC(c4ccc(OCCN5CCN(C)C(=O)[C@H]5C)cc4)CC3)nn12 [AZD5153]; conditions: max 1 µM
Outline: as §1

AZD6738 = compound: C[C@@H]1COCCN1C2=NC(=NC(=C2)C3(CC3)[S@](=N)(=O)C)C4=C5C=CNC5=NC=C4 [AZD6738]; conditions: max 10 µM
Outline: as §1

[1] = compound: O=C(Nc1ccc2[nH]nc(-c3ccncc3)c2c1)[C@@H]1CCN(CC(=O)N2CCN(c3ccc(-c4ncccn4)cc3)CC2)C1; conditions: max 5 µM
Outline: as §1

AZD1390 = compound: CC(C)n1c(=O)n(C)c2cnc3cc(F)c(-c4ccc(OCCCN5CCCCC5)nc4)cc3c21 [AZD1390]; conditions: max 0.3 µM
Outline: as §1

AZD4320 = compound: CN(CC[C@H](CSC1=CC=CC=C1)NC2=C(C=C(C=C2)S(=O)(=O)NC(=O)C3=CC=C(C=C3)N4CCC(CC4)[C@H](C5=CC=CC=C5C6=CC=C(C=C6)Cl)O)S(=O)(=O)C(F)(F)F)CCO [AZD4320]; conditions: max 1 µM
Outline: as §1

Lapatinib = compound: CS(=O)(=O)CCNCc1ccc(-c2ccc3ncnc(Nc4ccc(OCc5cccc(F)c5)c(Cl)c4)c3c2)o1 [Lapatinib]; conditions: max 10 µM
Outline: as §1

Savolitinib = compound: C[C@@H](c1ccc2nccn2c1)n1nnc2ncc(-c3cnn(C)c3)nc21 [Savolitinib]; conditions: max 1 µM
Outline: as §1

AZD0156 = compound: CN(C)CCCOc1ccc(-c2ccc3ncc4c(c3c2)n(C2CCOCC2)c(=O)n4C)cn1 [AZD0156]; conditions: max 3 µM
Outline: as §1

Olaparib = compound: O=C(c1cc(Cc2n[nH]c(=O)c3ccccc23)ccc1F)N1CCN(C(=O)C2CC2)CC1 [Olaparib]; conditions: max 10 µM
Outline: as §1

Carboplatin = compound: C1CC(C1)(C(=O)[O-])C(=O)[O-].N.N.[Pt+2] [Carboplatin]; conditions: max 10 µM
Outline: as §1

Alisertib = compound: COc1cc(Nc2ncc3c(n2)-c2ccc(Cl)cc2C(c2c(F)cccc2OC)=NC3)ccc1C(=O)O [Alisertib]; conditions: max 10 µM
Outline: as §1

Paclitaxel = compound: CC(=O)O[C@H]1C(=O)[C@@]2(C)[C@H]([C@H](OC(=O)c3ccccc3)[C@]3(O)C[C@H](OC(=O)[C@H](O)[C@@H](NC(=O)c4ccccc4)c4ccccc4)C(C)=C1C3(C)C)[C@]1(OC(C)=O)CO[C@@H]1C[C@@H]2O [Paclitaxel]; conditions: max 3 µM
Outline: as §1

Venetoclax = compound: CC1(C)CCC(CN2CCN(c3ccc(C(=O)NS(=O)(=O)c4ccc(NCC5CCOCC5)c([N+](=O)[O-])c4)c(Oc4cnc5[nH]ccc5c4)c3)CC2)=C(c2ccc(Cl)cc2)C1 [Venetoclax]; conditions: max 1 µM
Outline: as §1

Selumetinib = compound: Cn1cnc2c(F)c(Nc3ccc(Br)cc3Cl)c(C(=O)NOCCO)cc21 [Selumetinib]; conditions: max 10 µM
Outline: as §1

Prexasertib = compound: COc1cccc(OCCCN)c1-c1cc(Nc2cnc(C#N)cn2)n[nH]1 [Prexasertib]; conditions: max 1 µM
Outline: as §1

Row | Cell Line | IC50, cell viability 72 h (AZD1775) | IC50, cell viability 72 h (Trametinib) | IC50, cell viability 72 h (AZD7648) | IC50, cell viability 72 h (5-Fluorouracil) | IC50, cell viability 72 h (Gemcitabine) | IC50, cell viability 72 h (Etoposide) | IC50, cell viability 72 h (AZD5363) | IC50, cell viability 72 h (Taselisib) | IC50, cell viability 72 h (Palbociclib) | IC50, cell viability 72 h (SN-38) | IC50, cell viability 72 h (SG3199) | IC50, cell viability 72 h (Gefitinib) | IC50, cell viability 72 h (AZD8186) | IC50, cell viability 72 h (Dasatinib) | IC50, cell viability 72 h (Doxorubicin) | IC50, cell viability 72 h (SRA737) | IC50, cell viability 72 h (AZD5991) | IC50, cell viability 72 h (Crizotinib) | IC50, cell viability 72 h (MK-2206) | IC50, cell viability 72 h (AZD2811) | IC50, cell viability 72 h (AZD5153) | IC50, cell viability 72 h (AZD6738) | IC50, cell viability 72 h [1] | IC50, cell viability 72 h (AZD1390) | IC50, cell viability 72 h (AZD4320) | IC50, cell viability 72 h (Lapatinib) | IC50, cell viability 72 h (Savolitinib) | IC50, cell viability 72 h (AZD0156) | IC50, cell viability 72 h (Olaparib) | IC50, cell viability 72 h (Carboplatin) | IC50, cell viability 72 h (Alisertib) | IC50, cell viability 72 h (Paclitaxel) | IC50, cell viability 72 h (Venetoclax) | IC50, cell viability 72 h (Selumetinib) | IC50, cell viability 72 h (Prexasertib)
1 | NCI-H1792 (Lung Adenocarcinoma) | 0.73 µM | 0.0835 µM | > 10 µM | 7.72 µM | 0.0345 µM | 7.11 µM | > 10 µM | 4.88 µM | > 10 µM | 0.159 µM | > 0.001 µM | > 10 µM | > 10 µM | 1.55 µM | 0.558 µM | > 10 µM | > 1 µM | 6.07 µM | > 10 µM | > 1 µM | 0.561 µM | 4.81 µM | > 5 µM | > 0.3 µM | > 1 µM | > 10 µM | > 1 µM | > 3 µM | > 10 µM | > 10 µM | 5.11 µM | 0.00592 µM | > 1 µM | > 10 µM | 0.0979 µM
2 | NCI-H2818 (Mesothelioma) | > 3 µM | > 1 µM | > 10 µM | > 20 µM | > 0.3 µM | > 10 µM | > 10 µM | > 10 µM | > 10 µM | > 0.3 µM | > 0.001 µM | > 10 µM | > 10 µM | > 2 µM | > 1 µM | > 10 µM | > 1 µM | > 10 µM | > 10 µM | > 1 µM | > 1 µM | > 10 µM | > 5 µM | > 0.3 µM | > 1 µM | > 10 µM | > 1 µM | > 3 µM | > 10 µM | > 10 µM | > 10 µM | 0.745 µM | > 1 µM | > 10 µM | > 1 µM
3 | SR (Other Blood Carcinomas) | 0.187 µM | > 1 µM | > 10 µM | 4.32 µM | 0.0453 µM | 0.126 µM | > 10 µM | > 10 µM | 3 µM | 0.0033 µM | > 0.001 µM | > 10 µM | > 10 µM | > 2 µM | 0.0261 µM | 1.4 µM | 0.352 µM | 0.251 µM | > 10 µM | 0.0435 µM | 0.0864 µM | 1.75 µM | > 5 µM | > 0.3 µM | 0.677 µM | > 10 µM | > 1 µM | > 3 µM | > 10 µM | > 10 µM | 0.0503 µM | 0.00575 µM | 0.722 µM | > 10 µM | 0.00588 µM
4 | SW837 (Colorectal Carcinoma) | 2.24 µM | 0.3 µM | > 10 µM | > 20 µM | > 0.3 µM | > 10 µM | > 10 µM | > 10 µM | > 10 µM | > 0.3 µM | > 0.001 µM | > 10 µM | > 10 µM | > 2 µM | > 1 µM | > 10 µM | > 1 µM | > 10 µM | > 10 µM | > 1 µM | 0.717 µM | > 10 µM | > 5 µM | > 0.3 µM | > 1 µM | > 10 µM | > 1 µM | > 3 µM | > 10 µM | > 10 µM | > 10 µM | 0.582 µM | > 1 µM | 9.89 µM | 0.186 µM
5 | SW1417 (Colorectal Carcinoma) | > 3 µM | 0.0515 µM | > 10 µM | > 20 µM | > 0.3 µM | > 10 µM | > 10 µM | > 10 µM | > 10 µM | 0.182 µM | > 0.001 µM | > 10 µM | > 10 µM | > 2 µM | > 1 µM | > 10 µM | > 1 µM | > 10 µM | > 10 µM | > 1 µM | > 1 µM | > 10 µM | 1.35 µM | > 0.3 µM | > 1 µM | > 10 µM | > 1 µM | > 3 µM | > 10 µM | > 10 µM | > 10 µM | 0.422 µM | > 1 µM | 4.87 µM | 0.567 µM
